Results: PMC5800995 (Biochemical pharmacology, 2018)

Target: human D2LR E95^2.65A (Homo sapiens, UniProt P14416, E95A)
Assay: ERK1/2 phosphorylation, E95^2.65A
Type: cell-based
Settings: for Schild slope: dopamine-mediated pERK1/2, competitive model; for Kb: read-out: KB Function (pERK1/2)

Chain of human D2LR E95^2.65A (P14416 whole entry E95A): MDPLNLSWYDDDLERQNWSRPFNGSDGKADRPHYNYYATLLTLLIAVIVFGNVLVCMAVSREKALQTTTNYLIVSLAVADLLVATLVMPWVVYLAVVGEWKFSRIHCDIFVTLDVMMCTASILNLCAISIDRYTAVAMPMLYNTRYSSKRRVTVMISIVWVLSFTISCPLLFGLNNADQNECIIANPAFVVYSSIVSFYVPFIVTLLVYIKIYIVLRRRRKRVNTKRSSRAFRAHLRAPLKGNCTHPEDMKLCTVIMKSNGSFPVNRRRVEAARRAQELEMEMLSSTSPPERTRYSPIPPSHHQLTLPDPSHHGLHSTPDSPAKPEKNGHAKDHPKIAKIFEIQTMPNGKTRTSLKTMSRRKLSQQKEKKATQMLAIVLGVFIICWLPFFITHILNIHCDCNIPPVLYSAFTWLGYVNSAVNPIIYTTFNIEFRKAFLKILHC

Structure (SMILES)	pKB Function (pERK1/2)	Schild slope	Logαβ (net cooperativity with dopamine)	fold loss in functional affinity vs WT [fold]	αβ (net cooperativity with dopamine)	fold loss in negative cooperativity with dopamine vs WT (pERK1/2) [fold]	Kb [nM]
O=C(N[C@H]1CC[C@H](CCN2CCc3ccc(Br)cc3C2)CC1)c1cc2ccccc2[nH]1 [MIPS1556]	5.96 ± 0.12	1.08 ± 0.09					
O=C(N[C@H]1CC[C@H](CCN2CCc3ccccc3C2)CC1)c1cc2ccccc2[nH]1 [MIPS1278]	4.21 ± 0.15		−0.30 ± 0.20	709	0.50	6	61700
N#Cc1ccc2c(c1)CN(CCC1CCC(NC(=O)c3nc4ccccc4o3)CC1)CC2 (stereo not drawn) [MIPS1528]	5.92 ± 0.07	1.68 ± 0.10					1200
N#Cc1ccc2c(c1)CN(CCC1CCC(NC(=O)c3ccc[nH]3)CC1)CC2 (stereo not drawn) [MIPS1576]	7.02 ± 0.15		−1.24 ± 0.10	24	0.06		95
N#Cc1ccc2c(c1)CN(CCC1CCC(NC(=O)c3cc4cccnc4[nH]3)CC1)CC2 (stereo not drawn) [MIPS1588]	5.90 ± 0.20		−1.12 ± 0.16	27	0.08		1260
